Counter-ions that a name gives are not always drawn.
The compounds below were run on Acinetobacter baumannii ATCC17978 (assay: Antimicrobial susceptibility testing: 90% growth inhibitory concentration (IC90) determination, Iso-Sensitest broth). Conditions: 90% growth inhibitory concentration, Acinetobacter baumannii ATCC17978, Iso-Sensitest broth, OD 600 nm over 16 h; read-out: ATCC17978 IC90.
Type: cell-based
Method in brief: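 A. baumannii ATCC17978 grown in Iso-Sensitest broth across 10 compound concentrations at 35±2 °C.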

Structure (SMILES)	IC90
Cc1cc(Nc2nccn3c(-c4ccc(OCC#N)c(F)c4F)cnc23)ccc1C(=O)N1CCC(CCN)CC1 [Example 304, 2-[4-[8-[4-[4-(2-aminoethyl)piperidine-1-carbonyl]-3-methylanilino]imidazo[1,2-a]pyrazin-3-yl]-2,3-difluorophenoxy]acetonitrile]	110 nM
C#CCOc1ccc(-c2cnc3c(Nc4ccc(C(=O)N5CCC(C(=O)NCCCNC)CC5)c(C)c4)nccn23)c(F)c1F [Example 305, 1-[4-[[3-(2,3-difluoro-4-prop-2-ynoxyphenyl)imidazo[1,2-a]pyrazin-8-yl]amino]-2-methylbenzoyl]-N-[3-(methylamino)propyl]piperi-dine-4-carboxamide]	100 nM
CNCC(=O)N1CCN(C(=O)c2ccc(Nc3nccn4c(-c5ccc(OC)c(F)c5Cl)cnc34)cc2C)CC1 [Example 307, 1-[4-[4-[[3-(2-chloro-3-fluoro-4-methoxyphenyl)imidazo[1,2-a]pyrazin-8-yl]amino]-2-methylbenzoyl]piperazin-1-yl]-2-(methylamino)ethanone; hy-drochloride]	97 nM
CNCC(=O)N1CCN(C(=O)c2ccc(Nc3nccn4c(-c5ccc(OC)c(F)c5F)cnc34)cc2C)CC1 [Example 308, 1-[4-[4-[[3-(2,3-difluoro-4-methoxyphenyl)imidazo[1,2-a]pyrazin-8-yl]amino]-2-methylbenzoyl]piperazin-1-yl]-2-(methylamino)ethanone; hy-drochloride]	110 nM
CNCC(=O)N1CCN(C(=O)c2ccc(Nc3nccn4c(-c5ccc(OC)c(Cl)c5)cnc34)cc2C)CC1 [Example 322, 1-[4-[4-[[3-(3-chloro-4-methoxyphenyl)imidazo[1,2-a]pyrazin-8-yl]amino]-2-methylbenzoyl]piperazin-1-yl]-2-(methylamino)ethanone; hy-drochloride]	280 nM

Same assay, conditions: Acinetobacter baumannii, ATCC17978, 16 h, read-out: ATCC17978 IC90, 90% growth inhibitory concentration, Acinetobacter baumannii ATCC17978, Iso-Sensitest broth, OD 600 nm over 16 h

Structure (SMILES)	IC90
Cc1cc(Nc2nccn3c(-c4ccc(OC(F)F)cc4)cnc23)ccc1C(=O)N1CCC(C(=O)NCC2CN(S(C)(=O)=O)C2)CC1 [Example 306, 1-[4-[[3-[4-(difluoromethoxy)phenyl]imi-dazo[1,2-a]pyrazin-8-yl]amino]-2-methylbenzoyl]-N-[(1-methylsulfonylazetidin-3-yl)methyl]piperidine-4-carboxamide]	95 nM
CCc1cc(Nc2nccn3c(-c4ccc(OCC#N)c(F)c4F)cnc23)ccc1C(=O)N1CCC(CCN)CC1 [Example 309, 2-[4-[8-[4-[4-(2-aminoethyl)piperidine-1-carbonyl]-3-ethylanilino]imidazo[1,2-a]pyrazin-3-yl]-2,3-difluorophenoxy]acetonitrile; formic acid]	130 nM
Cc1cc(Nc2nccn3c(-c4ccc(OC(F)F)cc4)cnc23)ccc1C(=O)N1CCC(C(=O)NCC2(F)CNC2)CC1 [Example 310, 1-[4-[[3-[4-(difluoromethoxy)phenyl]imi-dazo[1,2-a]pyrazin-8-yl]amino]-2-methylbenzoyl]-N-[(3-fluoroazetidin-3-yl)methyl]piperidine-4-carboxamide; hydrochloride]	140 nM
CN[C@@H](C)C(=O)N1CCN(C(=O)c2ccc(Nc3nccn4c(-c5ccc(OC(F)F)cc5)cnc34)cc2C)CC1 [Example 311, (2S)-1-[4-[4-[[3-[4-(difluoromethoxy)phenyl]imi-dazo[1,2-a]pyrazin-8-yl]amino]-2-methylbenzoyl]piperazin-1-yl]-2-(methylamino)propan-1-one; hydrochloride]	190 nM
Cc1cc(Nc2nccn3c(-c4ccc(OC(F)F)cc4)cnc23)ccc1C(=O)N1CCN(C(=O)C2CC3(CNC3)C2)CC1 [Example 312, [4-(2-azaspiro[3.3]heptane-6-carbonyl)piperazin-1-yl]-[4-[[3-[4-(difluoromethoxy)phenyl]imi-dazo[1,2-a]pyrazin-8-yl]amino]-2-methylphenyl]methanone; hy-drochloride]	220 nM
Cc1cc(Nc2nccn3c(-c4ccc(OC(F)F)cc4)cnc23)ccc1C(=O)N1CCC(C(=O)N(C)CC(O)CO)CC1 (stereo not shown) [Example 313, 1-[4-[[3-[4-(difluoromethoxy)phenyl]imi-dazo[1,2-a]pyrazin-8-yl]amino]-2-methylbenzoyl]-N-(2,3-dihydroxypropyl)-N-methylpiperidine-4-carboxamide]	230 nM
CCNCC(=O)N1CCN(C(=O)c2ccc(Nc3nccn4c(-c5ccc(OC(F)F)cc5)cnc34)cc2C)CC1 [Example 314, 1-[4-[4-[[3-[4-(difluoromethoxy)phenyl]imi-dazo[1,2-a]pyrazin-8-yl]amino]-2-methylbenzoyl]piperazin-1-yl]-2-(ethylamino)ethanone; hydro-chloride]	230 nM
Cc1cc(Nc2nccn3c(-c4ccc(OC(F)F)cc4)cnc23)ccc1C(=O)N1CCN(C(=O)[C@H]2CNCCO2)CC1 [Example 315, [4-[[3-[4-(difluoromethoxy)phenyl]imi-dazo[1,2-a]pyrazin-8-yl]amino]-2-methylphenyl]-[4-[(2R)-morpholine-2-carbonyl]piperazin-1-yl]methanone; hydrochloride]	240 nM
Cc1cc(Nc2nccn3c(-c4ccc(OC(F)F)cc4)cnc23)ccc1C(=O)N1CCN(C(=O)CNC(=N)N)CC1 [Example 316, 1-[2-[4-[4-[[3-[4-(difluoromethoxy)phenyl]imi-dazo[1,2-a]pyrazin-8-yl]amino]-2-methylbenzoyl]piperazin-1-yl]-2-oxoethyl]guanidine; formic acid]	240 nM
Cc1cc(Nc2nccn3c(-c4ccc(OC(F)F)cc4)cnc23)ccc1C(=O)N1CCN(C(=O)[C@@H](N)C(C)C)CC1 [Example 317, (2S)-2-amino-1-[4-[4-[[3-[4-(difluoromethoxy)phenyl]imi-dazo[1,2-a]pyrazin-8-yl]amino]-2-methylbenzyol]piperazin-1-yl]-3-methylbutan-1-one; hydrochloride]	240 nM
Cc1cc(Nc2nccn3c(-c4ccc(OC(F)F)cc4)cnc23)ccc1C(=O)N1CCC(C(=O)N2C3CCC2CNC3)CC1 [Example 318, [4-(3,8-diazabicyclo[3.2.1]octane-8-carbonyl)piperidin-1-yl]-[4-[[3-[4-(difluoromethoxy)phenyl]imi-dazo[1,2-a]pyrazin-8-yl]amino]-2-methylphenyl]methanone; hy-drochloride]	250 nM
Cc1cc(Nc2nccn3c(-c4ccc(OC(F)F)cc4)cnc23)ccc1C(=O)N1CCN(C(=O)[C@H]2[C@@H]3CNC[C@@H]32)CC1 [Example 319, [4-[[3-[4-(difluoromethoxy)phenyl]imi-dazo[1,2-a]pyrazin-8-yl]amino]-2-methylphenyl]-[4-[rac-(1R,5S)-3-azabicyclo[3.1.0]hexane-6-carbonyl]piperazin-1-yl]methanone; hydrochloride]	260 nM
CNCC(=O)N1CCN(C(=O)c2ccc(Nc3nccn4c(-c5ccc(OC(F)F)cc5)cnc34)cc2C)CC1 [Example 320, 1-[4-[4-[[3-[4-(difluoromethoxy)phenyl]imi-dazo[1,2-a]pyrazin-8-yl]amino]-2-methylbenzoyl]piperazin-1-yl]-2-(methylamino)ethanone; hy-drochloride]	280 nM
CNCCNC(=O)C1CCN(C(=O)c2ccc(Nc3nccn4c(-c5ccc(OC)c(F)c5F)cnc34)cc2C)CC1 [Example 321, 1-[4-[[3-(2,3-difluoro-4-methoxyphenyl)imidazo[1,2-a]pyrazin-8-yl]amino]-2-methylbenzoyl]-N-[2-(methylamino)ethyl]piperidine-4-carboxamide; hydrochloride]	280 nM

Reference: patent publication US20230011869A1 (Hoffmann-La Roche Inc., priority 2018, published 2023)
